# Measured values from PubChem BioAssay (NCI).
#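 Compound exposure: 48 hours, 5 concentrations, 96-well plates. TGI: concentration producing complete growth inhibition.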
# Legend:
# Test in all cases: NCI anticancer screen, dose series, 48 h
# 786-0 renal = test system: 786-0 renal
# A498 renal = test system: A498 renal
# A549 NSCLC = test system: A549 NSCLC
# ACHN renal = test system: ACHN renal
# BT-549 breast = test system: BT-549 breast
# CAKI-1 renal = test system: CAKI-1 renal
# CCRF-CEM leukemia = test system: CCRF-CEM leukemia
# COLO 205 colon = test system: COLO 205 colon
# DU-145 prostate = test system: DU-145 prostate
# EKVX NSCLC = test system: EKVX NSCLC
# HCC-2998 colon = test system: HCC-2998 colon
# HCT-116 colon = test system: HCT-116 colon
# HCT-15 colon = test system: HCT-15 colon
# HL-60(TB) leukemia = test system: HL-60(TB) leukemia
# HOP-62 NSCLC = test system: HOP-62 NSCLC
# HOP-92 NSCLC = test system: HOP-92 NSCLC
# HS 578T breast = test system: HS 578T breast
# HT29 colon = test system: HT29 colon
# IGROV1 ovarian = test system: IGROV1 ovarian
# KM12 colon = test system: KM12 colon
# LOX IMVI melanoma = test system: LOX IMVI melanoma
# M14 melanoma = test system: M14 melanoma
# MALME-3M melanoma = test system: MALME-3M melanoma
# MCF7 breast = test system: MCF7 breast
# MDA-MB-231 breast = test system: MDA-MB-231 breast
# MDA-MB-435 = test system: MDA-MB-435
# MDA-N = test system: MDA-N
# MOLT-4 leukemia = test system: MOLT-4 leukemia
# NCI-H226 lung = test system: NCI-H226 lung
# NCI-H23 lung = test system: NCI-H23 lung
# NCI-H460 lung = test system: NCI-H460 lung
# NCI-H522 lung = test system: NCI-H522 lung
# NCI/ADR-RES ovarian = test system: NCI/ADR-RES ovarian
# OVCAR-3 ovarian = test system: OVCAR-3 ovarian
# OVCAR-4 ovarian = test system: OVCAR-4 ovarian
# OVCAR-5 ovarian = test system: OVCAR-5 ovarian
# OVCAR-8 ovarian = test system: OVCAR-8 ovarian
# PC-3 prostate = test system: PC-3 prostate
# RXF 393 renal = test system: RXF 393 renal
# SF-268 CNS = test system: SF-268 CNS
# SF-295 CNS = test system: SF-295 CNS
# SF-539 CNS = test system: SF-539 CNS
# SK-MEL-2 melanoma = test system: SK-MEL-2 melanoma
# SK-MEL-28 melanoma = test system: SK-MEL-28 melanoma
# SK-MEL-5 melanoma = test system: SK-MEL-5 melanoma
# SK-OV-3 ovarian = test system: SK-OV-3 ovarian
# SN12C renal = test system: SN12C renal
# SNB-19 CNS = test system: SNB-19 CNS
# SNB-75 CNS = test system: SNB-75 CNS
# SR leukemia = test system: SR leukemia
# SW-620 colon = test system: SW-620 colon
# T-47D breast = test system: T-47D breast
# TK-10 renal = test system: TK-10 renal
# U251 CNS = test system: U251 CNS
# UACC-257 melanoma = test system: UACC-257 melanoma
# UACC-62 melanoma = test system: UACC-62 melanoma
# UO-31 renal = test system: UO-31 renal
# K-562 leukemia = test system: K-562 leukemia
# RPMI-8226 leukemia = test system: RPMI-8226 leukemia
smiles,measurement,setting,value
COC(=O)/C(=N/NC(N)=O)C(C(=O)C(=O)Nc1ccc(C)cc1)c1nc2ccc(C(=O)c3ccccc3)cc2[nH]c1=O (configuration not stated),TGI,786-0 renal,> 100 µM
same,TGI,A498 renal,89.6 µM
same,TGI,A549 NSCLC,> 100 µM
same,TGI,ACHN renal,> 100 µM
same,TGI,BT-549 breast,> 100 µM
same,TGI,CAKI-1 renal,> 100 µM
same,TGI,CCRF-CEM leukemia,> 100 µM
same,TGI,COLO 205 colon,> 100 µM
same,TGI,DU-145 prostate,> 100 µM
same,TGI,EKVX NSCLC,> 100 µM
same,TGI,HCC-2998 colon,> 100 µM
same,TGI,HCT-116 colon,> 100 µM
same,TGI,HCT-15 colon,> 100 µM
same,TGI,HL-60(TB) leukemia,> 100 µM
same,TGI,HOP-62 NSCLC,> 100 µM
same,TGI,HOP-92 NSCLC,> 100 µM
same,TGI,HS 578T breast,> 100 µM
same,TGI,HT29 colon,> 100 µM
same,TGI,IGROV1 ovarian,> 100 µM
same,TGI,KM12 colon,> 100 µM
same,TGI,LOX IMVI melanoma,> 100 µM
same,TGI,M14 melanoma,> 100 µM
same,TGI,MALME-3M melanoma,> 100 µM
same,TGI,MCF7 breast,> 100 µM
same,TGI,MDA-MB-231 breast,> 100 µM
same,TGI,MDA-MB-435,> 100 µM
same,TGI,MDA-N,> 100 µM
same,TGI,MOLT-4 leukemia,> 100 µM
same,TGI,NCI-H226 lung,> 100 µM
same,TGI,NCI-H23 lung,> 100 µM
same,TGI,NCI-H460 lung,> 100 µM
same,TGI,NCI-H522 lung,> 100 µM
same,TGI,NCI/ADR-RES ovarian,> 100 µM
same,TGI,OVCAR-3 ovarian,> 100 µM
same,TGI,OVCAR-4 ovarian,> 100 µM
same,TGI,OVCAR-5 ovarian,> 100 µM
same,TGI,OVCAR-8 ovarian,> 100 µM
same,TGI,PC-3 prostate,> 100 µM
same,TGI,RXF 393 renal,> 100 µM
same,TGI,SF-268 CNS,> 100 µM
same,TGI,SF-295 CNS,> 100 µM
same,TGI,SF-539 CNS,> 100 µM
same,TGI,SK-MEL-2 melanoma,> 100 µM
same,TGI,SK-MEL-28 melanoma,> 100 µM
same,TGI,SK-MEL-5 melanoma,> 100 µM
same,TGI,SK-OV-3 ovarian,> 100 µM
same,TGI,SN12C renal,> 100 µM
same,TGI,SNB-19 CNS,> 100 µM
same,TGI,SNB-75 CNS,> 100 µM
same,TGI,SR leukemia,41.8 µM
same,TGI,SW-620 colon,> 100 µM
same,TGI,T-47D breast,> 100 µM
same,TGI,TK-10 renal,> 100 µM
same,TGI,U251 CNS,> 100 µM
same,TGI,UACC-257 melanoma,> 100 µM
same,TGI,UACC-62 melanoma,> 100 µM
same,TGI,UO-31 renal,> 100 µM
CC(C)(Oc1ccc(Cl)cc1)C(=O)N(C(=O)N1CCN(c2ccccc2)CC1)c1ccccc1,TGI,786-0 renal,> 100 µM
same,TGI,A498 renal,> 100 µM
same,TGI,A549 NSCLC,> 100 µM
same,TGI,ACHN renal,> 100 µM
same,TGI,BT-549 breast,> 100 µM
same,TGI,CAKI-1 renal,> 100 µM
same,TGI,CCRF-CEM leukemia,> 100 µM
same,TGI,COLO 205 colon,> 100 µM
same,TGI,DU-145 prostate,> 100 µM
same,TGI,EKVX NSCLC,> 100 µM
same,TGI,HCC-2998 colon,> 100 µM
same,TGI,HCT-116 colon,> 100 µM
same,TGI,HCT-15 colon,> 100 µM
same,TGI,HL-60(TB) leukemia,> 100 µM
same,TGI,HOP-62 NSCLC,> 100 µM
same,TGI,HOP-92 NSCLC,> 100 µM
same,TGI,HS 578T breast,> 100 µM
same,TGI,HT29 colon,> 100 µM
same,TGI,K-562 leukemia,> 100 µM
same,TGI,KM12 colon,> 100 µM
same,TGI,LOX IMVI melanoma,> 100 µM
same,TGI,M14 melanoma,> 100 µM
same,TGI,MALME-3M melanoma,> 100 µM
same,TGI,MCF7 breast,> 100 µM
same,TGI,MDA-MB-231 breast,> 100 µM
same,TGI,MDA-MB-435,> 100 µM
same,TGI,MDA-N,> 100 µM
same,TGI,MOLT-4 leukemia,> 100 µM
same,TGI,NCI-H226 lung,> 100 µM
same,TGI,NCI-H23 lung,> 100 µM
same,TGI,NCI-H460 lung,> 100 µM
same,TGI,NCI-H522 lung,> 100 µM
same,TGI,NCI/ADR-RES ovarian,> 100 µM
same,TGI,OVCAR-3 ovarian,> 100 µM
same,TGI,OVCAR-4 ovarian,> 100 µM
same,TGI,OVCAR-5 ovarian,> 100 µM
same,TGI,OVCAR-8 ovarian,> 100 µM
same,TGI,PC-3 prostate,> 100 µM
same,TGI,RXF 393 renal,> 100 µM
same,TGI,SF-268 CNS,> 100 µM
same,TGI,SF-295 CNS,> 100 µM
same,TGI,SF-539 CNS,> 100 µM
same,TGI,SK-MEL-2 melanoma,> 100 µM
same,TGI,SK-MEL-28 melanoma,> 100 µM
same,TGI,SK-MEL-5 melanoma,> 100 µM
same,TGI,SK-OV-3 ovarian,> 100 µM
same,TGI,SN12C renal,> 100 µM
same,TGI,SNB-19 CNS,> 100 µM
same,TGI,SNB-75 CNS,> 100 µM
same,TGI,SR leukemia,> 100 µM
same,TGI,SW-620 colon,> 100 µM
same,TGI,T-47D breast,> 100 µM
same,TGI,TK-10 renal,> 100 µM
same,TGI,U251 CNS,> 100 µM
same,TGI,UACC-257 melanoma,> 100 µM
same,TGI,UACC-62 melanoma,> 100 µM
same,TGI,UO-31 renal,> 100 µM
C=CCN1CN(C2CCCCC2)CSC1=S,TGI,786-0 renal,18.8 µM
same,TGI,A498 renal,33.2 µM
same,TGI,A549 NSCLC,> 65.7 µM
same,TGI,ACHN renal,17.5 µM
same,TGI,BT-549 breast,> 80.3 µM
same,TGI,CAKI-1 renal,24 µM
same,TGI,COLO 205 colon,14.3 µM
same,TGI,DU-145 prostate,> 26.4 µM
same,TGI,EKVX NSCLC,37.2 µM
same,TGI,HCC-2998 colon,21.1 µM
same,TGI,HCT-116 colon,25.1 µM
same,TGI,HCT-15 colon,> 45.7 µM
same,TGI,HL-60(TB) leukemia,0.655 µM
same,TGI,HOP-62 NSCLC,> 40.7 µM
same,TGI,HOP-92 NSCLC,39.3 µM
same,TGI,HS 578T breast,18.4 µM
same,TGI,HT29 colon,17 µM
same,TGI,IGROV1 ovarian,31.4 µM
same,TGI,K-562 leukemia,> 45.7 µM
same,TGI,KM12 colon,18 µM
same,TGI,LOX IMVI melanoma,27 µM
same,TGI,M14 melanoma,17.8 µM
same,TGI,MALME-3M melanoma,18.7 µM
same,TGI,MCF7 breast,9.11 µM
same,TGI,MDA-MB-231 breast,43.6 µM
same,TGI,MDA-MB-435,12.2 µM
same,TGI,MDA-N,21.7 µM
same,TGI,MOLT-4 leukemia,> 22.5 µM
same,TGI,NCI-H226 lung,42.8 µM
same,TGI,NCI-H23 lung,40.5 µM
same,TGI,NCI-H460 lung,29.8 µM
same,TGI,NCI-H522 lung,17.1 µM
same,TGI,NCI/ADR-RES ovarian,> 95.5 µM
same,TGI,OVCAR-3 ovarian,29.6 µM
same,TGI,OVCAR-4 ovarian,27.4 µM
same,TGI,OVCAR-5 ovarian,27.6 µM
same,TGI,OVCAR-8 ovarian,40.8 µM
same,TGI,PC-3 prostate,28 µM
same,TGI,RPMI-8226 leukemia,> 34.4 µM
same,TGI,RXF 393 renal,18.7 µM
same,TGI,SF-268 CNS,11.8 µM
same,TGI,SF-295 CNS,> 81.5 µM
same,TGI,SF-539 CNS,8.04 µM
same,TGI,SK-MEL-2 melanoma,26.9 µM
same,TGI,SK-MEL-28 melanoma,38.5 µM
same,TGI,SK-MEL-5 melanoma,14.2 µM
same,TGI,SK-OV-3 ovarian,> 44.1 µM
same,TGI,SN12C renal,27.1 µM
same,TGI,SNB-19 CNS,> 100 µM
same,TGI,SNB-75 CNS,25.7 µM
same,TGI,SR leukemia,3.15 µM
same,TGI,SW-620 colon,24.3 µM
same,TGI,T-47D breast,30.4 µM
same,TGI,TK-10 renal,27 µM
same,TGI,U251 CNS,15.7 µM
same,TGI,UACC-257 melanoma,30 µM
same,TGI,UACC-62 melanoma,22.1 µM
same,TGI,UO-31 renal,24 µM
